Measurements published in PubChem BioAssay AID328 (DTP/NCI, 2004).
Toxic doses and inconclusive results are not listed.

Test system: BDF1 mice, P388 leukemia ip, median survival T/C
Assay: NCI In Vivo Anticancer Drug Screen. Data for tumor model P388 Leukemia (intraperitoneal) in B6D2F1 (BDF1) mice
Settings: endpoint: median survival time, higher = longer survival
Method in brief: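 Read-out is survival of treated animals expressed relative to the vehicle group, as a T/C ratio.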

[1] = dose: 100.0 mg/kg/injection, schedule: Q01DX009 (ip), vehicle: water
[2] = dose: 50.0 mg/kg/injection, schedule: Q01DX009 (ip), vehicle: saline with Tween-80
[3] = dose: 100.0 mg/kg/injection, schedule: Q01DX009 (ip), vehicle: saline with Tween-80
[4] = dose: 25.0 mg/kg/injection, schedule: Q04DX003 (ip), vehicle: saline with Tween-80
[5] = dose: 50.0 mg/kg/injection, schedule: Q04DX003 (ip), vehicle: saline with Tween-80
[6] = dose: 100.0 mg/kg/injection, schedule: Q04DX003 (ip), vehicle: saline with Tween-80
[7] = dose: 200.0 mg/kg/injection, schedule: Q04DX003 (ip), vehicle: saline with Tween-80

Nc1ccc2cn[nH]c2c1
T/C (dose: 25.0 mg/kg/injection, schedule: Q01DX009 (ip), vehicle: water): 99 % of control
T/C (dose: 50.0 mg/kg/injection, schedule: Q01DX009 (ip), vehicle: water): 103 % of control
T/C (dose: 50.0 mg/kg/injection, schedule: Q04DX003 (ip), vehicle: water): 103 % of control
T/C [1]: 89 % of control
T/C (dose: 100.0 mg/kg/injection, schedule: Q04DX003 (ip), vehicle: water): 116 % of control
T/C (dose: 200.0 mg/kg/injection, schedule: Q01DX009 (ip), vehicle: water): 94 % of control
T/C (dose: 200.0 mg/kg/injection, schedule: Q04DX003 (ip), vehicle: water): 110 % of control
T/C (dose: 400.0 mg/kg/injection, schedule: Q01DX009 (ip), vehicle: water): 94 % of control
T/C (dose: 400.0 mg/kg/injection, schedule: Q04DX003 (ip), vehicle: water): 116 % of control

CC1=CC23C(=O)[C@@H](C=C(COC(=O)c4ccccc4)[C@@H](O)[C@]2(O)[C@H]1OC(=O)c1ccccc1)[C@H]1[C@@H](C[C@H]3C)C1(C)C
T/C (dose: 7.0 micrograms/kg/injection, schedule: Q01DX009 (ip), vehicle: saline with Tween-80): 197 % of control
T/C (dose: 8.0 micrograms/kg/injection, schedule: Q01DX009 (ip), vehicle: saline + alcohol): 110 % of control
T/C (dose: 11.0 micrograms/kg/injection, schedule: Q01DX009 (ip), vehicle: saline with Tween-80): 107 % of control
T/C (dose: 13.0 micrograms/kg/injection, schedule: Q01DX009 (ip), vehicle: saline + alcohol): 108 % of control
T/C (dose: 19.0 micrograms/kg/injection, schedule: Q01DX009 (ip), vehicle: saline with Tween-80): 113 % of control
T/C (dose: 21.0 micrograms/kg/injection, schedule: Q01DX009 (ip), vehicle: saline + alcohol): 110 % of control
T/C (dose: 31.0 micrograms/kg/injection, schedule: Q01DX009 (ip), vehicle: saline with Tween-80): 113 % of control
T/C (dose: 35.0 micrograms/kg/injection, schedule: Q01DX009 (ip), vehicle: saline + alcohol): 110 % of control
T/C (dose: 52.0 micrograms/kg/injection, schedule: Q01DX009 (ip), vehicle: saline with Tween-80): 124 % of control
T/C (dose: 59.0 micrograms/kg/injection, schedule: Q01DX009 (ip), vehicle: saline + alcohol): 107 % of control
T/C (dose: 86.0 micrograms/kg/injection, schedule: Q01DX009 (ip), vehicle: saline with Tween-80): 109 % of control
T/C (dose: 98.0 micrograms/kg/injection, schedule: Q01DX009 (ip), vehicle: saline + alcohol): 100 % of control
T/C (dose: 144.0 micrograms/kg/injection, schedule: Q01DX009 (ip), vehicle: saline with Tween-80): 113 % of control
T/C (dose: 240.0 micrograms/kg/injection, schedule: Q01DX009 (ip), vehicle: saline with Tween-80): 157 % of control

O=C(/C=C/c1ccc(OCc2ccccc2)cc1)c1cccc(F)c1
T/C [2]: 100 % of control
T/C [3]: 100 % of control
T/C (dose: 200.0 mg/kg/injection, schedule: Q01DX009 (ip), vehicle: saline with Tween-80): 92 % of control

O=C(O)C1CC(c2ccccc2)OC1=O (stereo unspecified)
T/C (dose: 100.0 mg/kg/injection, schedule: Q01DX009 (ip), vehicle: gum acacia): 92 % of control
T/C (dose: 100.0 mg/kg/injection, schedule: Q04DX003 (ip), vehicle: gum acacia): 100 % of control
T/C (dose: 200.0 mg/kg/injection, schedule: Q01DX009 (ip), vehicle: gum acacia): 92 % of control
T/C (dose: 200.0 mg/kg/injection, schedule: Q04DX003 (ip), vehicle: gum acacia): 104 % of control
T/C (dose: 400.0 mg/kg/injection, schedule: Q04DX003 (ip), vehicle: gum acacia): 108 % of control

O=C1NC2(CCCCC2)C(=O)N1CCN(CCCl)CCCl
T/C (dose: 0.39 mg/kg/injection, schedule: Q01DX009 (ip), vehicle: saline): 196 % of control
T/C (dose: 0.78 mg/kg/injection, schedule: Q01DX009 (ip), vehicle: saline): 189 % of control
T/C (dose: 1.56 mg/kg/injection, schedule: Q01DX009 (ip), vehicle: saline): 222 % of control
T/C (dose: 3.12 mg/kg/injection, schedule: Q01DX009 (ip), vehicle: saline): 291 % of control
T/C (dose: 6.25 mg/kg/injection, schedule: Q01DX009 (ip), vehicle: saline): 291 % of control
T/C (dose: 12.5 mg/kg/injection, schedule: Q01DX009 (ip), vehicle: saline): 120 % of control

C[C@@H]1C[C@@H]([C@@H](CC2CC(=O)NC(=O)C2)OC(=O)CC(=O)c2ccccc2)C(=O)[C@@H](C)C1
T/C (dose: 11.0 mg/kg/injection, schedule: Q01DX009 (ip), vehicle: saline with Tween-80): 120 % of control
T/C (dose: 25.0 mg/kg/injection, schedule: Q01DX009 (ip), vehicle: saline with Tween-80): 165 % of control
T/C [4]: 109 % of control
T/C (dose: 37.5 mg/kg/injection, schedule: Q01DX009 (ip), vehicle: saline with Tween-80): 160 % of control
T/C [2]: 95 % of control
T/C [5]: 118 % of control

CC1CC=CCC1COC(OCC1CC=CCC1C)C1CC=CCC1C (stereo unspecified)
T/C (dose: 100.0 mg/kg/injection, schedule: Q04DX003 (ip), vehicle: other): 104 % of control
T/C (dose: 200.0 mg/kg/injection, schedule: Q04DX003 (ip), vehicle: other): 114 % of control
T/C (dose: 400.0 mg/kg/injection, schedule: Q04DX003 (ip), vehicle: other): 119 % of control

O=S(=O)(O)O.[Ga]
T/C (dose: 8.25 mg/kg/injection, schedule: Q01DX009 (ip), vehicle: saline sonified): 100 % of control
T/C [5]: 90 % of control
T/C [6]: 95 % of control
T/C (dose: 134.0 mg/kg/injection, schedule: Q04DX003 (ip), vehicle: saline with Tween-80): 92 % of control
T/C [7]: 123 % of control
T/C (dose: 300.0 mg/kg/injection, schedule: Q04DX003 (ip), vehicle: saline with Tween-80): 96 % of control

CC(=O)O[C@@]1(C)C(=O)OCC2=CCN3CC[C@@H](OC(=O)[C@H](C)[C@]1(C)OC(C)=O)[C@@H]23
T/C (dose: 25.0 mg/kg/injection, schedule: Q01DX010 (ip), vehicle: carboxymethylcellulose (CMC)): 105 % of control
T/C (dose: 50.0 mg/kg/injection, schedule: Q01DX010 (ip), vehicle: carboxymethylcellulose (CMC)): 90 % of control

CC(C)(C)OP(=O)(OC(C)(C)C)c1ccccc1
T/C [2]: 118 % of control
T/C [3]: 98 % of control

COc1cc2c(cc1OC)-c1c3c(cc4c1[C@@H](C2)N(C)CC4)OCO3
T/C (dose: 12.5 mg/kg/injection, schedule: Q01DX009 (ip), vehicle: acid diluted with saline): 100 % of control
T/C (dose: 25.0 mg/kg/injection, schedule: Q01DX009 (ip), vehicle: acid diluted with saline): 100 % of control
T/C (dose: 50.0 mg/kg/injection, schedule: Q01DX009 (ip), vehicle: acid diluted with saline): 105 % of control

O=C(Nc1ccc2c(c1)OCO2)O/N=C\c1cccnc1
T/C [5]: 100 % of control
T/C [6]: 109 % of control
T/C [7]: 109 % of control

Cc1cnc(=S)n(-c2ccccc2)c1
T/C (dose: 12.5 mg/kg/injection, schedule: Q04DX003 (ip), vehicle: saline with Tween-80): 95 % of control
T/C [4]: 104 % of control
T/C [5]: 98 % of control

CCN(CC)CCNc1ccc(CO)c2sc3ccccc3c(=O)c12
T/C (dose: 17.3 mg/kg/injection, schedule: Q01DX009 (ip), vehicle: water): 108 % of control
T/C (dose: 18.75 mg/kg/injection, schedule: Q01DX009 (ip), vehicle: saline): 104 % of control
T/C (dose: 21.6 mg/kg/injection, schedule: Q01DX009 (ip), vehicle: water): 119 % of control
T/C (dose: 28.8 mg/kg/injection, schedule: Q01DX009 (ip), vehicle: water): 122 % of control
T/C (dose: 42.0 mg/kg/injection, schedule: Q01DX009 (ip), vehicle: water): 150 % of control
T/C (dose: 48.0 mg/kg/injection, schedule: Q01DX009 (ip), vehicle: water): 170 % of control
T/C (dose: 60.0 mg/kg/injection, schedule: Q01DX009 (ip), vehicle: water): 160 % of control
T/C (dose: 70.0 mg/kg/injection, schedule: Q01DX009 (ip), vehicle: water): 122 % of control
T/C (dose: 75.0 mg/kg/injection, schedule: Q01DX009 (ip), vehicle: saline): 116 % of control
T/C (dose: 80.0 mg/kg/injection, schedule: Q01DX009 (ip), vehicle: water): 188 % of control
T/C (dose: 88.0 mg/kg/injection, schedule: Q04DX003 (ip), vehicle: saline): 109 % of control
T/C [1]: 113 % of control
T/C (dose: 117.0 mg/kg/injection, schedule: Q01DX009 (ip), vehicle: water): 97 % of control
T/C (dose: 132.0 mg/kg/injection, schedule: Q04DX003 (ip), vehicle: saline): 109 % of control
T/C (dose: 200.0 mg/kg/injection, schedule: Q04DX003 (ip), vehicle: saline): 122 % of control
T/C (dose: 300.0 mg/kg/injection, schedule: Q04DX003 (ip), vehicle: saline): 163 % of control
